Molecular target: T1, STAT6 (Homo sapiens, UniProt P42226)
T1 construct: These cells express endogenous STAT6; host or cells: HeLa LgBiT clone 4.14 (CRISPR knock-in of HiBiT into the endogenous STAT6 gene)
T1 sequence (P42226 1-847): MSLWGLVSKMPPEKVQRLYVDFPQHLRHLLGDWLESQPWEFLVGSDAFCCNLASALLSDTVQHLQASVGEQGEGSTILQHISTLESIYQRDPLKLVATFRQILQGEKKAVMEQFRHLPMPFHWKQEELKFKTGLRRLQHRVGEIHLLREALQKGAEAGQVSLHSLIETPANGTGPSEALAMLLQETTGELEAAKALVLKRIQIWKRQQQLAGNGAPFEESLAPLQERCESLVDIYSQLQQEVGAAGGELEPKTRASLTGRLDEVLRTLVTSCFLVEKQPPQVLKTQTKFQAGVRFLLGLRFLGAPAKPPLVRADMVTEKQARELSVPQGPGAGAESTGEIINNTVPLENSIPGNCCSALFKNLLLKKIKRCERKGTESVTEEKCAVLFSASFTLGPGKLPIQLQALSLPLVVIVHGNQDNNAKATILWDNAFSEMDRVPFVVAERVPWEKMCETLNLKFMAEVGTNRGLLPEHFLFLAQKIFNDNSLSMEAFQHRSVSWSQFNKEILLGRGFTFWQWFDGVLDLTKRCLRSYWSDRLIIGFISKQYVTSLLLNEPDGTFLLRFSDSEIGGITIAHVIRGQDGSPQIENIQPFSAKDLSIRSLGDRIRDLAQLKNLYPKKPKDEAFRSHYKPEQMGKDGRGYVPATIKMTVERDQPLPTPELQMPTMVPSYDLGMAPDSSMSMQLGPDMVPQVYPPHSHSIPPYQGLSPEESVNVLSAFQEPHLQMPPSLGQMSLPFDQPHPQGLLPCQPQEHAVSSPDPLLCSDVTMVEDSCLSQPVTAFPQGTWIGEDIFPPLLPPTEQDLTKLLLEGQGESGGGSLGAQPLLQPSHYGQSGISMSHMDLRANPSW
Assay: STAT6 Degrader Assay (HiBiT based, HeLa LgBiT clone 4.14 cells)
Type: cell-based
Settings: HeLa; maximal STAT6 degradation
Description: This was a HiBit based assay. A HeLa cell line stably transfected with a small protein, LgBit (Large Bit) was obtained from Promega. These cells express endogenous STAT6. A small 11 amino acid gene sequence (HiBiT) was inserted in the STAT6 gene using CRISPR technology. Once STAT6 protein is expressed in the cells, the HiBiT sequence will bind the LgBit in the cells resulting in a functional NanoBiT protein, giving a luminescent tag to STAT6. Single cell clones were prepared and the clone 4.14 was selected for the assay based on that clone showing high luminescence, high STAT6 phosphorylation upon stimulation with IL-4, and inhibition of luminescence when cells were treated with STAT6 siRNA. HeLa LgBiT clone 4.14 cells were suspended in DMEM with 10% FCS, 1% Pen/Strep, Na-pyrovate and Hygromycin B, at a concentration of 1.25*105 cells pr mL. 5000 cells were added pr well of a 384 well plate and 20 nL of compound was added by Echo® liquid handler. NN6394A (terfenadine, a toxic compound) was added to control wells at 50 μM concentration to establish the assay window. In these wells the cells are dead which equals 100% degradation of STAT6. After 4-24 h of incubation at 37° C. under 5% CO2/95% air, 5 μL substrate (Nano-GLO®) was added to the wells and the plates were centrifuged and incubated for 0.5 h. The luminescence in the wells as a measure of non-degraded STAT6 was measured in a plate reader (BMG Pherastar FSX). The measured DC50 (in nM) was determined.

| Structure (SMILES) | Emax |
| --- | --- |
| CNc1ccn(-c2ccnc3c2cc(CN2CC=C(c4c(C)cc(C(=O)N5CCC(CN6CCN(c7ccc(N[C@H]8CCC(=O)NC8=O)cc7F)CC6)CC5)cc4F)CC2)n3C)c(=O)c1 (single isomer, unassigned) [Example 2g55] | 70 to 80% |
| CNc1ccn(-c2ccnc3c2cc(CN2CC=C(c4c(C)cc(C(=O)N5CCC(CN6CCN(c7ccc(N[C@@H]8CCC(=O)NC8=O)cc7F)CC6)CC5)cc4F)CC2)n3C)c(=O)c1 (single isomer, unassigned) [Example 2g56] | 70 to 80% |
| CNc1ccn(-c2ccnc3c2cc([C@H](C)N2CC=C(c4c(C)cc(C(=O)N5CCC(CN6CCN(c7ncc(NC8CCC(=O)NC8=O)cc7F)CC6)CC5)cc4F)CC2)n3C)c(=O)c1 (stereo partly drawn) [Example 2g13, 3-((5-fluoro-6-(4-((1-(3-fluoro-5-methyl-4-(1-((S)-1-(1-methyl-4-(4-(methyl-amino)-2-oxopyridin-1(2H)-yl)-1H-pyrrolo[2,3-b]pyridin-2-yl)ethyl)-1,2,3,6-tetrahydro-pyridin-4-yl)benzoyl)piperi-din-4-yl)methyl)piperazin-1-yl)pyridin-3-yl)amino)piperi-dine-2,6-dione] | 20 to 30% |

Same assay, conditions: geometric mean across assay runs and compound batches; DC50 provided for test compounds with >80% Emax; read-out: STAT6 degradation DC50

| Structure (SMILES) | DC50 |
| --- | --- |
| CNc1ccn(-c2ccnc3c2cc([C@H](C)N2CC=C(c4c(C)cc(C(=O)N5CCn6nc(CN7CCC(c8ccc(N[C@H]9CCC(=O)NC9=O)cc8F)CC7)cc6C5)cc4F)CC2)n3C)c(=O)c1 (single isomer, unassigned) [Example 2g16] | 0.2 nM |
| CNc1ccn(-c2ccnc3c2cc([C@H](C)N2CC=C(c4c(C)cc(C(=O)N5CCn6nc(CN7CCC(c8ccc(N[C@@H]9CCC(=O)NC9=O)cc8F)CC7)cc6C5)cc4F)CC2)n3C)c(=O)c1 (single isomer, unassigned) [Example 2g17] | 0.2 nM |
| Cc1cc(C(=O)N2CCC(CN3CCN(c4ccc(N[C@H]5CCC(=O)NC5=O)cc4F)CC3)CC2)cc(F)c1C1=CCN([C@@H](C)c2cc3c(-n4ccc5c(c4=O)CCN5)ccnc3n2C)CC1 (single isomer, unassigned) [Example 2g19] | 4.5 nM |
| Cc1cc(C(=O)N2CCC(CN3CCN(c4ccc(N[C@@H]5CCC(=O)NC5=O)cc4F)CC3)CC2)cc(F)c1C1=CCN([C@@H](C)c2cc3c(-n4ccc5c(c4=O)CCN5)ccnc3n2C)CC1 (single isomer, unassigned) [Example 2g20] | 6.9 nM |
| Cc1cc(C(=O)N2CCC(CN3CCN(c4ccc(N[C@H]5CCC(=O)NC5=O)cc4F)C[C@H]3C)CC2)cc(F)c1C1=CCN([C@@H](C)c2cc3c(-n4ccc5c(c4=O)CCN5)ccnc3n2C)CC1 (single isomer, unassigned) [Example 2g23] | 3.3 nM |
| Cc1cc(C(=O)N2CCC(CN3CCN(c4ccc(N[C@@H]5CCC(=O)NC5=O)cc4F)C[C@H]3C)CC2)cc(F)c1C1=CCN([C@@H](C)c2cc3c(-n4ccc5c(c4=O)CCN5)ccnc3n2C)CC1 (single isomer, unassigned) [Example 2g24] | 3 nM |
| CNc1cc(=O)n(-c2ccnc3c2cc([C@H](C)N2CC=C(c4c(C)cc(C(=O)N5CCC(CN6CCN(c7ccc(N[C@@H]8CCC(=O)NC8=O)cc7F)C[C@H]6C)CC5)cc4F)CC2)n3C)cc1F (single isomer, unassigned) [Example 2g28] | 10.3 nM |
| CNc1cc(=O)n(-c2ccnc3c2cc([C@H](C)N2CC=C(c4c(C)cc(C(=O)N5CCC(CN6CCN(c7ccc(N[C@H]8CCC(=O)NC8=O)cc7F)C[C@H]6C)CC5)cc4F)CC2)n3C)cc1F (single isomer, unassigned) [Example 2g29] | 3.6 nM |
| CNc1cc(=O)n(-c2ccnc3c2cc(CN2CCC(c4c(F)cc(C(=O)N5CCC(CN6CCN(c7ccc(N[C@H]8CCC(=O)NC8=O)cc7F)CC6)CC5)cc4F)CC2)n3C)cc1F (single isomer, unassigned) [Example 2g34] | 15.1 nM |
| CNc1ccn(-c2ccnc3c2cc([C@H](C)N2CC=C(c4c(C)cc(C(=O)N5CCC(CN6CCN(c7ccc(N[C@@H]8CCC(=O)NC8=O)cc7F)CC6)CC5)cc4F)CC2)n3C)c(=O)c1 (single isomer, unassigned) [Example 2g38] | 2.4 nM |
| CNc1ccn(-c2ccnc3c2cc([C@H](C)N2CC=C(c4c(C)cc(C(=O)N5CCC(CN6CCN(c7ccc(N[C@H]8CCC(=O)NC8=O)cc7F)CC6)CC5)cc4F)CC2)n3C)c(=O)c1 (single isomer, unassigned) [Example 2g39] | 5 nM |
| CNc1ccn(-c2ccnc3c2cc([C@H](C)N2CCC(c4c(C)cc(C(=O)N5CCC(CN6CCN(c7ccc(N[C@@H]8CCC(=O)NC8=O)cc7F)CC6)CC5)cc4F)CC2)n3C)c(=O)c1 (single isomer, unassigned) [Example 2g44] | 12.2 nM |
| CNc1ccn(-c2ccnc3c2cc([C@H](C)N2CCC(c4c(C)cc(C(=O)N5CCC(CN6CCN(c7ccc(N[C@H]8CCC(=O)NC8=O)cc7F)CC6)CC5)cc4F)CC2)n3C)c(=O)c1 (single isomer, unassigned) [Example 2g45] | 10.7 nM |
| CNc1ccn(-c2ccnc3c2cc([C@H](C)N2CC=C(c4c(C)cc(C(=O)N5CCC(CN6CCN(c7ccc(N[C@@H]8CCC(=O)NC8=O)cc7F)C[C@H]6C)CC5)cc4F)CC2)n3C)c(=O)c1 (single isomer, unassigned) [Example 2g47] | 3.3 nM |
| CNc1ccn(-c2ccnc3c2cc([C@H](C)N2CC=C(c4c(C)cc(C(=O)N5CCC(CN6CCN(c7ccc(N[C@H]8CCC(=O)NC8=O)cc7F)C[C@H]6C)CC5)cc4F)CC2)n3C)c(=O)c1 (single isomer, unassigned) [Example 2g48] | 2.4 nM |
| CNc1ccn(-c2ccnc3c2cc(CN2CCC(c4c(C)cc(C(=O)N5CCC(CN6CCN(c7ccc(N[C@@H]8CCC(=O)NC8=O)cc7F)CC6)CC5)cc4F)CC2)n3C)c(=O)c1 (single isomer, unassigned) [Example 2g61] | 14.8 nM |
| CNc1ccn(-c2ccnc3c2cc(CN2CCC(c4c(C)cc(C(=O)N5CCC(CN6CCN(c7ccc(N[C@H]8CCC(=O)NC8=O)cc7F)CC6)CC5)cc4F)CC2)n3C)c(=O)c1 (single isomer, unassigned) [Example 2g62] | 18 nM |
| CNc1cc(=O)n(-c2ccnc3c2cc([C@H](C)N2CC=C(c4c(C)cc(C(=O)N5CCC(CN6CCN(c7ccc(N[C@H]8CCC(=O)NC8=O)cc7F)CC6)CC5)cc4F)CC2)n3C)cc1F (single isomer, unassigned) [Example 2g92] | 5.9 nM |
| CNc1cc(=O)n(-c2ccnc3c2cc([C@H](C)N2CC=C(c4c(C)cc(C(=O)N5CCC(CN6CCN(c7ccc(N[C@@H]8CCC(=O)NC8=O)cc7F)CC6)CC5)cc4F)CC2)n3C)cc1F (single isomer, unassigned) [Example 2g93] | 7.2 nM |
| CNc1ccn(-c2ccnc3c2cc([C@H](C)N2CC=C(c4c(C)cc(C(=O)N5CCC(CN6CCN(c7ncc(N[C@H]8CCC(=O)NC8=O)cc7F)C[C@@H]6C)CC5)cc4F)CC2)n3C)c(=O)c1 (single isomer, unassigned) [Example 2g95] | 11 nM |
| CNc1ccn(-c2ccnc3c2cc([C@H](C)N2CC=C(c4c(C)cc(C(=O)N5CCC(CN6CCN(c7ncc(N[C@@H]8CCC(=O)NC8=O)cc7F)C[C@@H]6C)CC5)cc4F)CC2)n3C)c(=O)c1 (single isomer, unassigned) [Example 2g96] | 14 nM |
| CNc1ccn(-c2ccnc3c2cc([C@H](C)N2CC=C(c4c(C)cc(C(=O)N5CCC(CN6CCN(c7ccc(N[C@@H]8CCC(=O)NC8=O)cc7F)C[C@@H]6C)CC5)cc4F)CC2)n3C)c(=O)c1 (single isomer, unassigned) [Example 2g99] | 22.2 nM |
| CNc1ccn(-c2ccnc3c2cc([C@H](C)N2CC=C(c4c(F)cc(C(=O)N5CCC(CN6CCN(c7ccc(N[C@H]8CCC(=O)NC8=O)cc7F)CC6)CC5)cc4F)CC2)n3C)c(=O)c1 (single isomer, unassigned) [Example 2g106] | 7.66 nM |
